Consider 7 compounds from PMC12257397, “Scaffold Hopping Strategy toward New 4‑Aminoquinazolines Active Against Extracellular and Intracellular Mycobacterium tuberculosis” (ACS Medicinal Chemistry Letters, 2025).

Values after ≈ are worked out from the molar mass of the structure shown.

The test system of one data set is M. tuberculosis H37Rv-LP. The arrangement: method as in PMID 35262374, PMID 29035551. The following applies: given in Figure 1A; cited from earlier work.
The test system of data set [1] is M. tuberculosis H37Rv (Erdman). More on the design: method as in PMID 31511370. The settings on record: given in Figure 1A; cited from earlier work.
For data set [2], the system named is M. tuberculosis qcrCAB (wt). The arrangement: method as in PMID 31511370. The following applies: given in Figure 1A; cited from earlier work.
Data set [3] concerns M. tuberculosis H37Rv (ATCC 27294). Kind of data set: MIC by resazurin reduction microplate assay (REMA). The following applies: Mycobacterium tuberculosis, converted from μg/mL to μM. Format: cell-based. (In general: The colour change of resazurin is a common sign of viable cells or microbes.)
Data set [4] concerns M. tuberculosis H37Rv-LP (ATCC 25618). Kind of data set: microbe, parasite or virus in culture. Format: cell-based. The following applies: Mycobacterium tuberculosis, 120 h, concentration inhibiting 90% of growth, 5 days, read-out: MIC parental wild-type strain H37Rv-LP.
Data set [5] can be described thus: in vitro. The following applies: African green monkey.
Data set [6] can be described thus: in vitro. The settings on record: African green monkey. The source holds these as a separate data set.
Data set [7] is described as follows: in vitro. The settings on record: human.
Data set [8] has as its system H37Rv-LP (ATCC 25618) inside THP-1 cells. Kind of data set: microbe, parasite or virus in culture. Format: cell-based. The following applies: Mycobacterium tuberculosis, 72 hours; for IC50: growth of H37Rv-LP inside THP-1 cells inhibited by 50%, read-out: Intracellular IC50; for IC90: growth of H37Rv-LP inside THP-1 cells inhibited by 90%, read-out: Intracellular IC90.

The subject of data set [9] is Staphylococcus aureus (ATCC 29213). As to the kind of experiment: Antimicrobial spectrum MIC, S. aureus. Format: cell-based.
The next data set deals with Escherichia coli RFM 795. As to the kind of experiment: Antimicrobial spectrum MIC, E. coli. Format: cell-based. The settings on record: Escherichia coli RFM 795 (lptD mutation).
For data set [10], the system named is Mycobacterium abscessus 103R. Kind of data set: Antimicrobial spectrum MIC, M. abscessus. Format: cell-based.
Data set [11] concerns Mycobacterium avium 2285S (smooth). Kind of data set: Antimicrobial spectrum MIC, M. avium smooth. Format: cell-based.
The subject of data set [12] is Mycobacterium avium 2285R (rough). As to the kind of experiment: Antimicrobial spectrum MIC, M. avium rough. Format: cell-based.
Data set [13] concerns Mycobacterium smegmatis mc2155. The format is cell-based.
A short description of data set [14]: Microsomal stability, mouse liver microsomes (MLM). Format: in vitro ADME. The settings on record: male, BALB/c, pH 7.4; for half-life at 6 μM: mouse liver microsomes, read-out: MLM t1/2. As to the method: (§1) 1.5. Microsomal stability
(§2) Test compound (6 μM) was incubated at 37 °C with male BALB/c mouse liver microsomes or mixed gender human liver microsomes (Xenotech LLC; 0.5 mg /mL, […] potassium phosphate buﬀer, pH 7.4) and the reaclon started with addilon of excess NADPH (2 mM, pH 7.4). Samples (35 µL) were removed at lme 0, 5, 10, 20, 30, and 60 min and mixed with 35 µL of acetonitrile, methanol, wate r s o l u lon (2:1:1) containing […] internal standard terfenadine and 0.05% v/v acelc acid. The samples were centrifuged at 4000 rpm for 10 min and the supernatant was analyzed using a 1100 HPLC and Single Quad 6120 (Agilent, USA). Compounds were tested in duplic ate, and an exponenlal decay curve ﬁt was used on the ralo of peak area of test compound to internal standard at each lme point to calculate the rate constant (k). The rate of intrinsic clearance (CLint) of each test compound was then calculated using the following equalon: CLint (mL/min/mg) = k x V where V was mL/mg protein. Verapamil (6 μM) was used as a posilve control. Incubalon of each compound with microsomes in the absence of NADPH and analyzed at 0 and 60 min was used as the negalve control.
(§3) The human biological samples were sourced ethically, and their research use was in accord with the terms of the informed consents.
(Liver microsomes are vesicles of endoplasmic reticulum, rich in cytochrome P450 enzymes.)

Data set [15] can be described thus: Microsomal stability, human liver microsomes (HLM). The format is in vitro ADME. The settings on record: both sexes, pH 7.4; for half-life at 6 μM: human liver microsomes, read-out: HLM t1/2. The method, then:
as §1, §2, §3

Data set [16] in a line: in vitro. The following applies: human. This is another data set of the same source.
The nature of data set [17]: in vitro. The following applies: human. The source holds these as a separate data set.
For data set [18], the system named is M. tuberculosis H37Rv-LP (ATCC 25618). As to the kind of experiment: ATP depletion assay (BacTiter-Glo). The format is cell-based, Mycobacterium tuberculosis. The settings on record: compared to the positive control Q203.

For `FC(F)(F)c1ccc(CCNc2cc(-c3ccccn3)nc3ncnn23)cc1` [1 (TAP)], in the data set on M. tuberculosis H37Rv-LP, the “MIC H37Rv-LP” value is 1.4 µM (≈ 0.538 µg/mL).

As for `CCc1nc2ccc(C)cc2n1CCCNc1ccccc1` [2 (FABA)], in the data set on M. tuberculosis H37Rv-LP, the “MIC H37Rv-LP” value is 0.056 µM (≈ 0.0164 µg/mL).

For `CCc1nc(NCCCc2ccccc2)c2cc(C)sc2n1` [3 (CWHM-1023)], the results for the IC50 in data set [1] and in data set [2] were 0.042 µM and 0.025 µM, respectively.

Consider `Cc1nc(NCCc2ccccc2)c2cc(I)ccc2n1` [9d], for which the values for the MIC in [3] and in data set [4] were 3.2 µM (≈ 1.25 µg/mL) and 0.95 µM (≈ 0.37 µg/mL), respectively. The CC50 at 72 h in the data set “in vitro [5]” came out at 11.7 µM; in “in vitro [6]”, 11.7 µM; in “in vitro [7]” (CC50 HepG2+Gal) it was 5.1 µM; in “in vitro [7]” (CC50 HepG2+Glu), 10.9 µM.

Consider `COc1ccc2nc(C)nc(NCCCc3ccccc3)c2c1` [18b], for which the results for the MIC in [3] and in data set [4] were 4.1 µM (≈ 1.26 µg/mL) and 1.5 µM (≈ 0.461 µg/mL), respectively. The IC50 (as a rule, the concentration that gives 50% inhibition) in data set [8] came out at 0.84 µM. For the same compound, the IC90 (commonly the concentration needed for an effect of 90%) in [8] was 1.9 µM. Also, in data set [9], the “CIM 29213” value is recorded as over 100 µM. Moreover, the “CIM RFM 795” value in the data set with Escherichia coli RFM 795 amounted to 54 µM. Moreover, the “CIM 103R” value in [10] is over 100 µM. In addition, the “CIM 2285S” value in data set [11] was over 100 µM. For the same compound, the “CIM 2285R” value in [12] is over 100 µM. Further, the “CIM mc2155” value in data set [13] was over 32.5 µM. Further, the microsomal CLint (in general, the rate of metabolic loss divided by the concentration) at 6 μM in data set [14] (mouse, microsomes) came to 530 µL/min/mg; in [15] (human, microsomes) it was 252 µL/min/mg. Also, the amount remaining (commonly what is left of the initial amount, in per cent) at 10 min, 6 μM in [14] (mouse, microsomes) was determined as 7%. Besides, the results for the half-life at 6 μM in data set [14] and in data set [15] were 2.6 min and 5.5 min, respectively. Besides, the amount remaining at 20 min, 6 μM in [15] (human, microsomes) came to 8%. Besides, the CC50 at 72 h in “in vitro [16]” was over 20 µM; in the data set “in vitro [17]”, 17 µM; in the data set “in vitro [7]” (CC50 HepG2+Gal), 11 µM; in “in vitro [7]” (CC50 HepG2+Glu), 13.9 µM.

In the case of `Cc1nc(NCCCc2ccccc2)c2cc(Br)ccc2n1` [18c], the MIC in [3] was found to be 0.45 µM (≈ 0.16 µg/mL); in data set [4], 0.28 µM (≈ 0.0998 µg/mL). Further, the IC50 in data set [8] stood at 0.16 µM. Moreover, the IC90 in data set [8] worked out at 0.45 µM. Besides, the “CIM 29213” value in [9] is on record as over 100 µM. The “CIM RFM 795” value with Escherichia coli RFM 795 is given as over 100 µM. The “CIM 103R” value in data set [10] is on record as over 100 µM. The “CIM 2285S” value in [11] is given as over 100 µM. For the same compound, the “CIM 2285R” value in data set [12] is given as over 100 µM. Further, the “CIM mc2155” value in data set [13] was over 56.1 µM. The intrinsic clearance (microsomal CLint) at 6 μM in data set [14] (mouse, microsomes) was 354 µL/min/mg; in data set [15] (human, microsomes), 184 µL/min/mg. The amount remaining at 20 min, 6 μM in data set [14] (mouse, microsomes) worked out at 2%. Besides, the half-life at 6 μM worked out at 3.9 min in data set [14] and 7.5 min in data set [15]. For the same compound, in [15] (human, microsomes), the amount remaining at 0.5 h, 6 μM amounted to 6%. For the same compound, in data set [18], the ATP depletion profile result was “none of the selected molecules produced a significant ATP depletion profile”. The CC50 at 72 h was found to be 13.8 µM in the data set “in vitro [16]”, 13.2 µM in “in vitro [17]”, 9.7 µM in the data set “in vitro [7]” (CC50 HepG2+Gal) and 19.1 µM in “in vitro [7]” (CC50 HepG2+Glu).

Consider `Cc1nc(NCCCc2ccccc2)c2cc(I)ccc2n1` [18d], for which the MIC in [3] was found to be 1.6 µM (≈ 0.645 µg/mL); in [4], 0.58 µM (≈ 0.234 µg/mL). Besides, the IC50 in data set [8] stood at 0.47 µM. For the same compound, the IC90 in data set [8] came to 1.2 µM. Moreover, in data set [9], the “CIM 29213” value is over 100 µM. Also, the “CIM RFM 795” value in the data set with Escherichia coli RFM 795 was over 100 µM. In addition, the “CIM 103R” value in [10] is over 100 µM. Also, the “CIM 2285S” value in data set [11] is over 100 µM. Further, the “CIM 2285R” value in [12] is reported as over 100 µM. Further, in data set [13], the “CIM mc2155” value was over 12.4 µM. Further, the microsomal CLint at 6 μM in data set [14] (mouse, microsomes) stood at 202 µL/min/mg; in data set [15] (human, microsomes), 243 µL/min/mg. Moreover, the amount remaining at 5 min, 6 μM in data set [14] (mouse, microsomes) was determined as 63%. Further, the half-life at 6 μM was 6.9 min in data set [14] and 5.7 min in data set [15]. In [15] (human, microsomes), this compound returned a share remaining at 20 min, 6 μM of 9%. For the same compound, the CC50 at 72 h in the data set “in vitro [16]” is over 20 µM; in the data set “in vitro [17]”, 18.3 µM; in the data set “in vitro [7]” (CC50 HepG2+Gal), 13 µM; in the data set “in vitro [7]” (CC50 HepG2+Glu), 20.3 µM.
